{"source": "patent US20240376084A1", "about": "“INHIBITORS OF ALPHA-HEMOLYSIN OF STAPHYLOCOCCUS AUREUS” (Helmholtz-Zentrum Fur Infektionsforschung GmbH, priority 2021, published 2024)"}
{"biological_target": "hemolysin alpha from Staphylococcus aureus (Staphylococcus aureus, UniProt P09616)", "sequence (P09616 27-319 limits assumed)": "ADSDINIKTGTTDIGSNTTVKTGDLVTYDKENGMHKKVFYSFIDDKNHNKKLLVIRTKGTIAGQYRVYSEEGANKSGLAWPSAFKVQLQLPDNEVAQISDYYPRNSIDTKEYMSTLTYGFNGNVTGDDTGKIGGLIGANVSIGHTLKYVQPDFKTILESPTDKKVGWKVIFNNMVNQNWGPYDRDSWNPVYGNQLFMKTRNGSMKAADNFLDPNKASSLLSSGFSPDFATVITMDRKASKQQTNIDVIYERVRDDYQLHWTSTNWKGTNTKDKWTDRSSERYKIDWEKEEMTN", "assay": "cell-based", "units": {"EC50": "nM", "IC50": "nM"}}
{"smiles": "Cc1cc2[nH]c(=O)c(=O)[nH]c2cc1S(=O)(=O)Nc1cnn(-c2ccccc2)c1", "note": "[Compound 207, 7-methyl-2,3-dioxo-N-(1-phenyl-1H-pyrazol-4-yl)-1,2,3,4-tetrahydroquinoxaline-6-sulfonamide]", "EC50": "1000 to 3500"}
{"smiles": "Cc1ccc(NS(=O)(=O)c2cc3[nH]c(=O)c(=O)[nH]c3cc2C)cc1Cl", "note": "[Compound 181, N-(3-chloro-4-methylphenyl)-7-methyl-2,3-dioxo-1,2,3,4-tetrahydroquinoxaline-6-sulfonamide]", "IC50": "1000 to 3500"}
{"smiles": "O=c1[nH]c2cc(F)c(S(=O)(=O)Nc3ccc4c(c3)CCCC4)cc2[nH]c1=O", "note": "[Compound 164, 7-fluoro-2,3-dioxo-N-(5,6,7,8-tetrahydronaphthalen-2-yl)-1,2,3,4-tetrahydroquinoxaline-6-sulfonamide]", "IC50": "100 to 1000"}
{"smiles": "O=c1[nH]c2cc([N+](=O)[O-])c(S(=O)(=O)Nc3ccc(OC(F)(F)F)cc3)cc2[nH]c1=O", "note": "[Compound 191, 7-nitro-2,3-dioxo-N-(4-(trifluoromethoxy)phenyl)-1,2,3,4-tetrahydroquinoxaline-6-sulfonamide]", "EC50": "100 to 1000"}
{"smiles": "Cc1nc2ccc(NS(=O)(=O)c3cc4[nH]c(=O)c(=O)[nH]c4cc3C)cc2s1", "note": "[Compound 239, 7-methyl-N-(2-methylbenzo[d]thiazol-6-yl)-2,3-dioxo-1,2,3,4-tetrahydroquinoxaline-6-sulfonamide]", "EC50": "1000 to 3500"}
{"smiles": "COc1ccc(-c2ccc(NS(=O)(=O)c3cc4[nH]c(=O)c(=O)[nH]c4cc3C)cc2Cl)cc1C(N)=O", "note": "[Compound 395, 5-[2-chloro-4-[(7-methyl-2,3-dioxo-1,4-dihydroquinoxalin-6-yl)sulfonylamino]phenyl]-2-methoxy-benzamide]", "EC50": "1000 to 3500"}
{"smiles": "CC(C)c1cc2[nH]c(=O)c(=O)[nH]c2cc1S(=O)(=O)Nc1ccc(-c2ccccc2)c(Cl)c1", "note": "[Compound 176, N-(2-chloro-[1,1′-biphenyl]-4-yl)-7-isopropyl-2,3-dioxo-1,2,3,4-tetrahydroquinoxaline-6-sulfonamide]", "IC50": "100 to 1000"}
{"smiles": "Cc1cc2[nH]c(=O)c(=O)[nH]c2cc1S(=O)(=O)Nc1ccc2c(ccn2C)c1", "note": "[Compound 228, 7-methyl-N-(1-methyl-1H-indol-5-yl)-2,3-dioxo-1,2,3,4-tetrahydroquinoxaline-6-sulfonamide]", "EC50": "1000 to 3500"}
{"smiles": "O=c1[nH]c2cc(F)c(S(=O)(=O)Nc3ccc(C(F)(F)F)c(Cl)c3)cc2[nH]c1=O", "note": "[Compound 165, N-(3-chloro-4-(trifluoromethyl)phenyl)-7-fluoro-2,3-dioxo-1,2,3,4-tetrahydroquinoxaline-6-sulfonamide]", "IC50": "1000 to 3500"}
{"smiles": "Cc1cc2[nH]c(=O)c(=O)[nH]c2cc1S(=O)(=O)Nc1ccc(OC(F)(F)F)cn1", "note": "[Compound 222, 7-methyl-2,3-dioxo-N-(5-(trifluoromethoxy)pyridin-2-yl)-1,2,3,4-tetrahydroquinoxaline-6-sulfonamide]", "EC50": "100 to 1000"}
{"smiles": "Cc1cc2[nH]c(=O)c(=O)[nH]c2cc1S(=O)(=O)Nc1ccc(N2CCOC(C)C2)c(Cl)c1", "note": "(centres unmarked) [Compound 204, N-(3-chloro-4-(2-methylmorpholino)phenyl)-7-methyl-2,3-dioxo-1,2,3,4-tetrahydroquinoxaline-6-sulfonamide]", "EC50": "1000 to 3500"}
{"smiles": "CC(C)c1cc2[nH]c(=O)c(=O)[nH]c2cc1S(=O)(=O)Nc1ccc(-c2ccoc2)c(Cl)c1", "note": "[Compound 161, N-(3-chloro-4-(furan-3-yl)phenyl)-7-isopropyl-2,3-dioxo-1,2,3,4-tetrahydroquinoxaline-6-sulfonamide]", "IC50": "100 to 1000"}
{"smiles": "Cc1cc2[nH]c(=O)c(=O)[nH]c2cc1S(=O)(=O)Nc1cnc(-c2cccc(Cl)c2)c(Cl)c1", "note": "[Compound 213, N-(5-chloro-6-(3-chlorophenyl)pyridin-3-yl)-7-methyl-2,3-dioxo-1,2,3,4-tetrahydroquinoxaline-6-sulfonamide]", "EC50": "100 to 1000"}
{"smiles": "Cc1cc2[nH]c(=O)c(=O)[nH]c2cc1S(=O)(=O)Nc1ccc(-c2ccc(F)cc2)c(S(C)(=O)=O)c1", "note": "[Compound 397, N-[4-(4-fluorophenyl)-3-methylsulfonyl-phenyl]-7-methyl-2,3-dioxo-1,4-dihydroquinoxaline-6-sulfonamide]", "EC50": "1000 to 3500"}
{"smiles": "Cc1cc(NS(=O)(=O)c2cc3[nH]c(=O)c(=O)[nH]c3cc2Cl)ccc1-c1ccncc1", "note": "[Compound 155, 7-chloro-N-(3-methyl-4-(pyridin-4-yl)phenyl)-2,3-dioxo-1,2,3,4-tetrahydroquinoxaline-6-sulfonamide]", "IC50": "100 to 1000"}
{"smiles": "Cc1cc2[nH]c(=O)c(=O)[nH]c2cc1S(=O)(=O)Nc1ccc(OC(F)(F)F)nc1", "note": "[Compound 223, 7-methyl-2,3-dioxo-N-(6-(trifluoromethoxy)pyridin-3-yl)-1,2,3,4-tetrahydroquinoxaline-6-sulfonamide]", "EC50": "100 to 1000"}
{"smiles": "Cc1cc2[nH]c(=O)c(=O)[nH]c2cc1S(=O)(=O)Nc1ccc(-c2c(C)cccc2C)cc1", "note": "[Compound 116, N-(2′,6′-dimethyl-[1,1′-biphenyl]-4-yl)-7-methyl-2,3-dioxo-1,2,3,4-tetrahydroquinoxaline-6-sulfonamide]", "IC50": "100 to 1000"}
{"smiles": "Cc1cc2[nH]c(=O)c(=O)[nH]c2cc1S(=O)(=O)Nc1ccc(N2CCCC2)c(Cl)c1", "note": "[Compound 196, N-(3-chloro-4-(pyrrolidin-1-yl)phenyl)-7-methyl-2,3-dioxo-1,2,3,4-tetrahydroquinoxaline-6-sulfonamide]", "EC50": "30 to 100"}
{"smiles": "Cc1cc2[nH]c(=O)c(=O)[nH]c2cc1S(=O)(=O)Nc1ccc(-c2cncc(Cl)c2)c(Cl)c1", "note": "[Compound 189, N-(3-chloro-4-(5-chloropyridin-3-yl)phenyl)-7-methyl-2,3-dioxo-1,2,3,4-tetrahydroquinoxaline-6-sulfonamide]", "IC50": "30 to 100"}
{"smiles": "Cc1cc2[nH]c(=O)c(=O)[nH]c2cc1S(=O)(=O)Nc1cnc(-c2ccc(F)c(Cl)c2)c(Cl)c1", "note": "[Compound 214, N-(5-chloro-6-(3-chloro-4-fluorophenyl)pyridin-3-yl)-7-methyl-2,3-dioxo-1,2,3,4-tetrahydroquinoxaline-6-sulfonamide]", "EC50": "100 to 1000"}
{"smiles": "Cc1cc2[nH]c(=O)c(=O)[nH]c2cc1S(=O)(=O)Nc1cc(C)c(-c2cnn(C)c2)c(C)c1", "note": "[Compound 184, N-(3,5-dimethyl-4-(1-methyl-1H-pyrazol-4-yl)phenyl)-7-methyl-2,3-dioxo-1,2,3,4-tetrahydroquinoxaline-6-sulfonamide]", "IC50": "1000 to 3500"}
{"smiles": "Cc1cc2[nH]c(=O)c(=O)[nH]c2cc1S(=O)(=O)Nc1nc(C)c(-c2ccccc2)s1", "note": "[Compound 240, 7-methyl-N-(4-methyl-5-phenylthiazol-2-yl)-2,3-dioxo-1,2,3,4-tetrahydroquinoxaline-6-sulfonamide]", "EC50": "1000 to 3500"}
{"smiles": "CCOc1ccc(NS(=O)(=O)c2cc3[nH]c(=O)c(=O)[nH]c3cc2C)cc1", "note": "[Compound 111, N-(4-ethoxyphenyl)-7-methyl-2,3-dioxo-1,2,3,4-tetrahydroquinoxaline-6-sulfonamide]", "IC50": "100 to 1000"}
{"smiles": "CN(C)c1cc2[nH]c(=O)c(=O)[nH]c2cc1S(=O)(=O)Nc1ccc(OC(F)(F)F)cc1", "note": "[Compound 221, 7-(dimethylamino)-2,3-dioxo-N-(4-(trifluoromethoxy)phenyl)-1,2,3,4-tetrahydroquinoxaline-6-sulfonamide]", "EC50": "30 to 100"}
{"smiles": "Cc1cc2[nH]c(=O)c(=O)[nH]c2cc1S(=O)(=O)Nc1cc(Cl)c(Br)cn1", "note": "[Compound 226, N-(5-bromo-4-chloropyridin-2-yl)-7-methyl-2,3-dioxo-1,2,3,4-tetrahydroquinoxaline-6-sulfonamide]", "EC50": "1000 to 3500"}
{"smiles": "Cc1cc2[nH]c(=O)c(=O)[nH]c2cc1S(=O)(=O)Nc1ccc(N2CCOCC2C)c(Cl)c1", "note": "(centres unmarked) [Compound 201, N-(3-chloro-4-(3-methylmorpholino)phenyl)-7-methyl-2,3-dioxo-1,2,3,4-tetrahydroquinoxaline-6-sulfonamide]", "EC50": "100 to 1000"}
{"smiles": "Cc1cc2[nH]c(=O)c(=O)[nH]c2cc1S(=O)(=O)Nc1cnc(-c2ccc(F)cc2)c(Cl)c1", "note": "[Compound 215, N-(5-chloro-6-(4-fluorophenyl)pyridin-3-yl)-7-methyl-2,3-dioxo-1,2,3,4-tetrahydroquinoxaline-6-sulfonamide]", "EC50": "30 to 100"}
{"smiles": "CC(C)c1cc2[nH]c(=O)c(=O)[nH]c2cc1S(=O)(=O)Nc1ccc(C2CC2)cc1", "note": "[Compound 153, N-(4-cyclopropylphenyl)-7-isopropyl-2,3-dioxo-1,2,3,4-tetrahydroquinoxaline-6-sulfonamide]", "IC50": "100 to 1000"}
{"smiles": "Cc1cc2[nH]c(=O)c(=O)[nH]c2cc1S(=O)(=O)Nc1ccc(N(C)C)cc1", "note": "[Compound 133, N-(4-(dimethylamino)phenyl)-7-methyl-2,3-dioxo-1,2,3,4-tetrahydroquinoxaline-6-sulfonamide]", "IC50": "100 to 1000"}
{"smiles": "O=c1[nH]c2cc(C(F)(F)F)c(S(=O)(=O)Nc3ccc(OC(F)(F)F)cc3)cc2[nH]c1=O", "note": "[Compound 190, 2,3-Dioxo-N-(4-(trifluoromethoxy)phenyl)-7-trifluoromethyl-1,2,3,4-tetrahydroquinoxaline-6-sulfonamide]", "EC50": "100 to 1000"}
{"smiles": "Cc1cc(NS(=O)(=O)c2cc3[nH]c(=O)c(=O)[nH]c3cc2Cl)cc(C)c1Br", "note": "[Compound 145, N-(4-bromo-3,5-dimethylphenyl)-7-chloro-2,3-dioxo-1,2,3,4-tetrahydroquinoxaline-6-sulfonamide]", "IC50": "100 to 1000"}
{"smiles": "CC(C)c1cc2[nH]c(=O)c(=O)[nH]c2cc1S(=O)(=O)Nc1ccc(-c2cccc(Cl)c2)c(Cl)c1", "note": "[Compound 178, N-(2,3′-dichloro-[1,1′-biphenyl]-4-yl)-7-isopropyl-2,3-dioxo-1,2,3,4-tetrahydroquinoxaline-6-sulfonamide]", "IC50": "100 to 1000"}
{"smiles": "Cc1cc(NS(=O)(=O)c2cc3[nH]c(=O)c(=O)[nH]c3cc2Cl)cc(C)c1-c1ccncc1", "note": "[Compound 157, 7-chloro-N-(3,5-dimethyl-4-(pyridin-4-yl)phenyl)-2,3-dioxo-1,2,3,4-tetrahydroquinoxaline-6-sulfonamide]", "IC50": "1000 to 3500"}
{"smiles": "Cc1cc2[nH]c(=O)c(=O)[nH]c2cc1S(=O)(=O)Nc1ccc(N2CCOCC2)cc1", "note": "[Compound 180, 7-methyl-N-(4-morpholinophenyl)-2,3-dioxo-1,2,3,4-tetrahydroquinoxaline-6-sulfonamide]", "IC50": "1000 to 3500"}
{"smiles": "CC(C)c1cc2[nH]c(=O)c(=O)[nH]c2cc1S(=O)(=O)Nc1ccc(Br)c(Cl)c1", "note": "[Compound 154, N-(4-bromo-3-chlorophenyl)-7-isopropyl-2,3-dioxo-1,2,3,4-tetrahydroquinoxaline-6-sulfonamide]", "IC50": "100 to 1000"}
